Assays:
[1] = test system: plasma; assay: Anticoagulant activity: prothrombin time (PT), Sysmex CA-1500; assay type: biochemical, human; settings: 20 μl sample + 80 μl plasma, test material g/dL as in label, Asp 7.5 mg/ml, N=3
Experimental: (§1) Antithrombotic (anticoagulant) activity was evaluated according to a previously reported method. Each of thromborel S, actin and thrombin, which are reagents for Sysmex CA-1500 for analysis of PT, aPTT and TT, was mounted in Sysmex CA-1500 (Siemens Healthcare, Germany) which is an automated blood coagulation test device. According to the automated procedure of the test device, clotting time (sec) (prothrombin time (PT), activated partial thromboplastin time (aPTT) and thrombin time (TT)) was measured. A sufficient amount of a sample for each of the three analyses was about 400 uL of an 80:20 mixture of plasma and a test substance.
(§2) The isolated plasma was used in an experiment in a fresh state within 5-6 hours.
(§3) In this experiment, for the relative comparison of the measured clotting time (sec) (PT, aPTT and TT) between test groups, clotting time prolongation (%) relative to triple distilled water (purified water) that is a normal control test sample was statistically analyzed. For statistical analysis, the […] anticoagulant activities of test materials were comparatively analyzed using SPSS IBM version 21.0 by one-way ANOVA at p<0.05, and significance comparison between groups was performed by Duncan's test.
The aspirin solution was immediately used at room temperature in a light-shielded state or was cold-stored.
As a control, aspirin was used, and as a vehicle control, triple distilled water (purified water) was used instead of the sample.

[2] = test system: plasma; assay: Anticoagulant activity: activated partial thromboplastin time (aPTT), Sysmex CA-1500; assay type: biochemical, human; settings: Table 4; 20 μl sample + 80 μl plasma; test material g/dL as in label; Asp 7.5 mg/ml; N=3
Experimental: as §1, §2, §3
The aspirin solution was immediately used at room temperature in a light-shielded state or was cold-stored. […]

[3] = test system: male mice (C57BL/6) fed high-fat diet; assay: Body weight and body weight gain of high-fat diet mice; assay type: in vivo; settings: for Body weight gain, Mean: HFD mice, metformin 250 mg/kg; for Body weight gain: mean; for body weight gain compared to high-fat diet (HFD) alone (in words): at 8 weeks after HFD feeding
Experimental: (§4) Using 8-week-old male mice (C57BL/6) (purchased from CoreTech), anti-diabetic candidate materials were evaluated using a GTT (Glucose Tolerance Test) that is a typical method for diagnosis of diabetes.
(§5) Mice were housed at a temperature of 22±2° C. and a relative humidity of 55-60% with 12-hr light/12-hr dark cycles. Five animals were allotted to each group, and mice from the same mother were grouped into one group, because male mice tend to fight together.
(§6) As feed, high-fat diet (60% of calories from fat; Research Diet Inc., New Brunswick, N.J.) and water were fed ad libitum for 10 weeks. Herein, the water fed contained the samples prepared in Examples 1-2 (3), 2-1, 2-4-1, 2-4-2 and 2-5. As a positive control, metformin (M-072, Sigma) (250 mg/kg) was used, and as a control, the samples prepared in Comparative Examples 1-1, 2-3-2, 2-5-1, 2-5-2 and 2-6 were used.
(§7) For reference, each of the samples prepared in Examples 2-4-1, 2-4-2 and 2-5 was set to the amount to be taken by an adult (60 kg) for 3 days, and the amount was converted into a mouse dose (12-fold/kg, see the US NIH guidance), thereby preparing animal feed. Namely, the amount to be taken by an adult (60 kg) for 3 days is 180-day dose/kg, which corresponds to 15-day dose/kg for mice. Thus, the amount corresponds to 750-day dose/mouse (20 g), because the average weight of mice is about 20 g. Thus, one mouse was allowed to take 1/750 of the prepared sample each day.
(§8) In addition, each of the samples prepared in Examples 1-2 (3) and 2-1 was set to the amount to be taken by an adult (60 kg) for 2 days, and the amount was converted into a mouse dose (12-fold/kg, see the US NIH guidance), thereby preparing animal feed. Namely, the amount to be taken by an adult (60 kg) for 2 days is 120-day dose/kg, which corresponds to 10-day dose/kg for mice. Thus, the amount corresponds to 500-day dose/mouse (20 g), because the average weight of mice is about 20 g. Thus, one mouse was allowed to take 1/500 of the prepared sample each day.
The diet intake and the body weight gain were measured weekly for 8 weeks. The body weight and the diet intake were measured immediately before first drug administration, and then measured at one-week intervals.
(§9) Meanwhile, experimental analysis results were expressed as mean±S.E.M., and the significance between test groups was statistically processed using Student T-TEST, and then the significance was verified at *P<0.05.

[4] = test system: male mice (C57BL/6) fed high-fat diet; assay: Glucose tolerance test (GTT) in high-fat diet mice; assay type: in vivo; settings: for fasting glucose level (in words) / glucose control ability in GTT compared with HFD alone (in words): 8 weeks of HFD; for fasting glucose level (in words): 8 h fasting, compared with HFD alone, normal mice or other group; for glucose control ability in GTT compared with HFD alone (in words): glucose 1 g/kg i.p.; for Glucose level: mean
Experimental: as §4, §5, §6, §7, §8
At 8 weeks of high-fat diet feeding, a glucose tolerance test (GTT) was performed. For 8 hours for the test, mice were fasted. Then, blood was sampled from the tail vein, and initial blood glucose levels were measured with a blood glucose meter (AUTO-CHEK, Diatech Korea). Then, glucose was administered intraperitoneally to the mice at a concentration of 1 g/kg, and after 30 min, 60 min, 90 min and 120 min, blood was sampled from the mice, followed by measurement of blood glucose levels (each group consisting of five animals).
as §9

[5] = test system: male mice (C57BL/6) fed high-fat diet; assay: Blood biochemistry (triglyceride, AST, ALT) in high-fat diet mice; assay type: in vivo
Experimental: as §6, §7, §8
In blood biochemistry, insulin (AKRIN-011T, Shibayagi, Japan), glucose (AM202, Asan Pharmaceutical Co., Ltd., Korea), triglyceride (AM157, Asan Pharmaceutical Co., Ltd.), total cholesterol (AM202, Asan Pharmaceutical Co., Ltd.), AST and ALT (Asan Pharmaceutical Co., Ltd.) were analyzed using enzymatic assay kits.
(§10) At 10 weeks of high-fat diet feeding, the mice were sacrificed by cervical dislocation to obtain serum. For histological examination, the liver, white adipose tissue (WAT), brown adipose tissue (BAT) and kidney were fixed with formalin (50-00-0, Junsei, Japan), and the remaining organs were stored at −70° C. The blood sampled from the heart was coagulated to obtain serum which was then stored at −70° C.
as §9

[6] = test system: male mice (C57BL/6) fed high-fat diet; assay: Histological examination of liver, WAT, BAT and kidney; assay type: in vivo; settings: HFD mice, 10 weeks
Experimental: as §6, §10
For histological examination, the major organs and adipose were fixed in 4% neutral buffered formalin and embedded in paraffin blocks, and the paraffin blocks were sectioned at 5 μm and stained with hymatoxylin (MHS-16, Sigma-Aldrich, USA) and eosin (HT110116, Sigma-Aldrich). The prepared tissue samples were mounted in glycerin gel mounting media (SP15-100, Fisher Scientific, USA), covered with cover glass, and observed with a microscope (IX71, OLYMPUS, USA). The tissue was imaged with the camera equipped in the microscope.

[7] = 8 weeks, sample in drinking water (1/500 per day), Tables 6, 9, 12
[8] = HFD mice serum, compared with reference diet, HFD or other group

O=C(CO)[C@@H](O)[C@H](O)[C@H](O)CO [Fruc 6.2, fructose]
PT clotting time prolongation relative to purified water, Mean ([1]; Table 4): 0.54%
aPTT clotting time prolongation relative to purified water, Mean [2]: −0.20%

CN(C)C(=N)N=C(N)N [Metformin, metformin]
Body weight gain, Mean ([3]; 1 week, Table 15 experiment, sample in drinking water (1/750 per day)): 2.445 g
Body weight gain ([3]; 2 weeks): 2.503 g
Body weight gain ([3]; 3 weeks): 4.020 g
Body weight gain, Mean ([3]; 4 weeks, Table 15 experiment, sample in drinking water (1/750 per day)): 4.600 g
Body weight gain ([3]; 4 weeks): 4.600 g
Body weight gain ([3]; 5 weeks): 6.093 g
Body weight gain ([3]; 6 weeks): 7.250 g
Body weight gain ([3]; 7 weeks): 6.263 g
Body weight gain, Mean ([3]; 8 weeks, Table 15 experiment, sample in drinking water (1/750 per day)): 8.238 g

NCCS(=O)(=O)O [DT19, taurine, reference compound]
fasting glucose level (in words) [4]: lower than that of the mice administered with high-fat diet (HFD), and were similar to the blood glucose levels of normal mice
glucose control ability in GTT compared with HFD alone (in words) [4]: significantly higher than that of the group administered with HFD alone
Body weight gain, Mean [3, 7]: 9.52 g
body weight gain compared to high-fat diet (HFD) alone (in words) [3]: significant reduction in body weight gain

NCCS(=O)(=O)O [DT15]
fasting glucose level (in words) [4]: lower than that of the mice administered with high-fat diet (HFD), and were similar to the blood glucose levels of normal mice
glucose control ability in GTT compared with HFD alone (in words) [4]: significantly higher than that of the group administered with HFD alone
Glucose level ([4]; GTT 0 min (fasting)): 121.25 mg/dL
Glucose level ([4]; GTT 30 min): 335.25 mg/dL
Glucose level ([4]; GTT 60 min): 295.25 mg/dL
Glucose level ([4]; GTT 90 min): 193.75 mg/dL
Glucose level ([4]; GTT 120 min): 126.25 mg/dL
triglyceride level (in words) ([5]; HFD mice serum, compared with normal/reference diet or other group): significantly lower than that of DT19
ALT level (in words) [5, 8]: lower than those of DT19
AST level (in words) [5, 8]: lower than those of DT19
ALT level ([5]; blood, mean): 14.02 IU/L
AST level ([5]; blood, mean): 98.96 IU/L
Triglyceride level ([5]; blood, mean): 53.62 mg/dL
Body weight gain, Mean ([3]; 2 weeks, sample in drinking water (1/500 per day), Tables 6, 9, 12): 4.40 g
Body weight gain, Mean [3, 7]: 11.58 g
body weight gain compared to high-fat diet (HFD) alone (in words) [3]: significant reduction in body weight gain
accumulation of adipose in brown adipose tissue (histology) [6]: decreased
development of fatty liver (histology) [6]: decreased
nephrotoxicity (histology) ([6]; kidney): did not appear

CC(=O)Oc1ccccc1C(=O)O [Asp, aspirin]
PT clotting time prolongation relative to purified water, Mean ([1]; Table 2): 9.90%

O=C(CO)[C@@H](O)[C@H](O)[C@H](O)CO [Fruc 12.4, fructose]
PT clotting time prolongation relative to purified water, Mean ([1]; Table 4): 0.54%
aPTT clotting time prolongation relative to purified water, Mean [2]: 0.58%

— patent US9877938B2 (priority 2014, dated 2018)
